13 compounds from article PMC7765321, “Novel Isoniazid-Carborane Hybrids Active In Vitro against Mycobacterium tuberculosis” (Pharmaceuticals, 2020) can be followed below.

“And” between values parts separate entries of the source, which are not always exact repeats. Identical values can stand only once.

In this assay the test system is Mtb ΔkatG mutant strain. Type of assay: cell-based, Mycobacterium tuberculosis.

Consider “N′-((1,2-dicarba-closo-dodecaboran-1-yl)ethylidene)isonicotinohydrazide [Compound 20]”, for which the “katG MIC50” value was 160 µM and the “katG MIC99” value is listed as 240 µM.
The corresponding values for “N′-((1,12-dicarba-closo-dodecaboran-1-yl)methylidene)isonicotinohydrazide [Compound 15]” are 510 µM and 680 µM.
The corresponding values for `NNC(=O)c1ccncc1` [4 (INH), pyridine-4-carbohydrazide, reference compound] are 1100 µM and 1500 µM.
In the same order, the values of “N′-((1,7-dicarba-closo-dodecaboran-1-yl)ethylidene)isonicotinohydrazide [Compound 21]” are 160 µM and 240 µM.
As to “N′-((1,12-dicarba-closo-dodecaboran-1-yl)ethylidene)isonicotinohydrazide [Compound 22]”, the “katG MIC50” value is reported as 160 µM and the “katG MIC99” value is 330 µM.
On to “N′-((7,8-dicarba-nido-undecaboranyl)methylidene)isonicotinohydrazide [Compound 16]”, for which the “katG MIC50” value was determined as 500 µM and the “katG MIC99” value is on record as more than 660 µM.
Regarding “N′-((1,12-dicarba-closo-dodecaboran-1-yl)propanoyl)isonicotinohydrazide [Compound 10]”, the “katG MIC50” value was found to be 150 µM and the “katG MIC99” value came out at 300 µM.
In the same order, the values of “N′-((1,7-dicarba-closo-dodecaboran-1-yl)ethyl)isonicotinohydrazide [Compound 24]” are 81.30 µM and 160 µM.
In the same order, the values of “N′-((1,7-dicarba-closo-dodecaboran-1-yl)propanoyl)isonicotinohydrazide [Compound 9]” are 150 µM and 300 µM.
In the same order, the values of “N′-((1,2-dicarba-closo-dodecaboran-1-yl)propanoyl)isonicotinohydrazide [Compound 8]” are 150 µM and 300 µM.
For the compound “N′-((1,7-dicarba-closo-dodecaboran-1-yl)methylidene)isonicotinohydrazide [Compound 14]”, the “katG MIC50” value is 260 µM and the “katG MIC99” value is 340 µM.
For the compound “N′-((1,12-dicarba-closo-dodecaboran-1-yl)ethyl)isonicotinohydrazide [Compound 25]”, the “katG MIC50” value is on record as 3.25 µM; the “katG MIC99” value was 24.4 µM and 24.40 µM.
Take “N′-((1,2-dicarba-closo-dodecaboran-1-yl)ethyl)isonicotinohydrazide [Compound 23]”: the “katG MIC50” value was found to be 97.60 µM and the “katG MIC99” value turned out to be 240 µM.
